According to paper PMC5578599, “Programmed cell death in Acanthamoeba castellanii Neff induced by several molecules present in olive leaf extracts” (PLoS ONE, 2017):
Values after ≈ are worked out from the molar mass of the structure shown. “Also recorded” adds a separate entry of the source. Read-outs that look alike come from different tables or passages of the source.

Assays:
[1] = system: Acanthamoeba castellanii Neff (ATCC 30010); test: Alamar Blue assay against the trophozoite stage, A. castellanii Neff; type: cell-based; details: IC50/96 h; for IC50: Acanthamoeba castellanii, ATCC30010, trophozoites; for IC50 A. Neff: trophozoites
CLC-16, genotype T3 = test: Alamar Blue assay against the trophozoite stage, clinical isolate CLC-16; type: cell-based; details: Acanthamoeba, trophozoites, IC50/96 h
Method: (§1) The strains used in this study included a type strain: Acanthamoeba castellanii Neff (ATCC 30010), and two clinical isolates, CLC-16, genotype T3; and CLC-51, genotype T1, which were isolated in a previous study. The strains were axenically grown in PYG medium (0.75% (w/v) proteose peptone, 0.75% (w/v) yeast extract and 1.5% (w/v) glucose) containing 40 μg/ml of gentamicin (Biochrom AG, Cultek, Granollers, Barcelona, Spain).
(§2) The anti-Acanthamoeba activities of the tested molecules were determined using the Alamar Blue® assay as previously described. Briefly, Acanthamoeba strains were seeded in duplicate on a 96-well microtiter plates with 50μl from a stock solution of 10^4 cells/ml. Amoebae were left to adhere for 15 min process which was checked using a Leika DMIL inverted microscope (Leika, Wetzlar, Germany). After that, 50 μl of serial dilutions of the molecules to be evaluated were added to the wells (In all tests, 1% DMSO was used to dissolve the highest dose of the compounds without inducing any effects on the parasites). Finally the Alamar Blue Reagent® (Life Technologies, Madrid, Spain) was placed into each well at an amount equal to 10% of the final volume. Test plates containing Alamar Blue were then incubated for 120 h at 28°C with a slight agitation.
(§3) Subsequently the plates were analyzed, during an interval of time between 72 and 144 h, on an EnSpire® Multimode Plate Reader (Perkin Elmer, Madrid, Spain) using a test wavelength of 570 nm and a reference wavelength of 630 nm. Percentages of growth inhibition, 50% and 90% inhibitory concentrations (IC50 and IC90) were calculated by linear regression analysis with 95% confidence limits. All experiments were performed three times, and the mean values were also calculated.

macrophages J774.A1 = test: LDH release cytotoxicity test; type: cell-based, murine; details: for Cytotoxicity level at the IC50 against Acanthamoeba / Cytotoxicity level at the IC90 against Acanthamoeba: J774A.1 murine macrophages, 24 hours, LDH release; for Cytotoxicity level at the IC50 against Acanthamoeba: compound at its IC50; for Cytotoxicity level at the IC90 against Acanthamoeba: compound at its IC90
Method: A commercial kit was used for the evaluation of the induced cytotoxic effects of tested compounds based on the measurement of lactate dehydrogenase (LDH) quantity released to the media (LDH Cytotoxicity Detection Kit, Roche Applied Science, Madrid, Spain), following the manufacturer's instructions. Briefly, the macrophages J774.A1 (ATCC # TIB-67) were incubated with different concentrations of the tested compounds for 24 hours in duplicate. After incubation, supernatants were obtained and LDH levels were determined following manufacturer′s instructions. To determine the cytotoxicity percentages, the average absorbance values of the duplicates were calculated and compared with negative and positive controls. Cytotoxic levels were determined as previously described.

CLC-51, genotype T1 = test: Alamar Blue assay against the trophozoite stage, clinical isolate CLC-51; type: cell-based; details: Acanthamoeba, trophozoites, IC50/96 h
Method: as §1, §2, §3

[2] = system: Acanthamoeba castellanii Neff (ATCC 30010); test: Alamar Blue assay against the trophozoite stage, A. castellanii Neff; type: cell-based; details: for IC90: ATCC30010, trophozoites, Alamar Blue
Method: as §1, §2, §3

A. Neff membrane = test: SYTOX Green plasma membrane permeability; type: cell-based, Acanthamoeba castellanii; details: IC90, SYTOX Green, relative to Triton X-100 positive control
Method: The SYTOX® Green assay was performed to detect membrane permeability alterations on the parasites. Briefly, 10^5 amoebae/ml were incubated with the SYTOX® Green at a final concentration of 1 μM (Molecular Probes®) for 30 min in the dark at 26°C. Subsequently, parasites were disposed to black plates and the tested compounds were added at the IC90. The increase in fluorescence due to binding of the fluorescent marker to the amoebic DNA was measured using an EnSpire® Multimode Plate Reader (Perkin Elmer, Madrid, Spain) with excitation wavelength of 504 nm and emission wavelength at 523 nm, and expressed as percentage relative to full permeabilized cells achieved by the addition of 0.1% Triton X-100 [17–19].

A. Neff = test: JC-1 mitochondrial membrane potential; type: cell-based, Acanthamoeba castellanii; details: IC90, 24 hours
Method: The ΔΨm was measured using JC-1 Mitochondrial Membrane Potential Assay Kit (Cayman Chemical, Vitro, Madrid, Spain). This lipophilic cationic probe accumulates in the mitochondrial matrix according to the membrane potential. In healthy cells with a high ΔΨm, JC-1 spontaneously forms complexes known as J-aggregates, showing intense red fluorescence (emission at 595 nm). […] In brief, amoebae, after 24 hours of incubation with different concentrations of the tested compounds, were harvested and washed with buffer. The cells were then incubated at 26°C for 30 minutes with JC-1 dye. Cells were then analyzed by fluorescence measurement in black plates through spectrofluorometer using 490 nm as excitation wavelength. Data presented here are representative of three experiments. The ratio of the reading at 595 nm to the reading at 535 nm was considered as the relative ΔΨm value.

[3] = system: Acanthamoeba castellanii Neff; test: Annexin-V/PI image-based cytometry for apoptosis; type: cell-based; details: treated with IC90, 24 h
Method: Annexin-V/propidium iodide (PI) double staining assay was performed using the Tali® Apoptosis Kit—Annexin V Alexa Fluor® 488 & Propidium Iodide according to the manufacturer's instructions (Life Technologies, Madrid, Spain). […] After that, cells were centrifuged and resuspended in ABB containing 1 μl of PI and incubated for 3 min at room temperature. Finally, 25 μl of the stained cells were loaded into a Tali® Cellular Analysis Slide and were analysed in the Tali® Image-Based Cytometer. Data were collected using the Tali® data acquisition and analysis software (Life Technologies, Madrid, Spain).

O=c1cc(-c2ccc(O)cc2)oc2cc(O)cc(O)c12 [Apigenine]
IC50 [1]: 6.59 ± 0.39 µg/mL (≈ 24.4 µM) | IC50 (CLC-16, genotype T3): 57 ± 2.68 µg/mL (≈ 211 µM) | Cytotoxicity level at the IC50 against Acanthamoeba (macrophages J774.A1): high cytotoxicity (abve 40% correspond to high cytotoxicity) | Cytotoxicity level at the IC90 against Acanthamoeba (macrophages J774.A1): high cytotoxicity (abve 40% correspond to high cytotoxicity) | IC50 (CLC-51, genotype T1): 20.2 ± 0.73 µg/mL (≈ 74.6 µM)

O=C(O)/C=C/c1ccc(O)c(O)c1 [Caffeic acid]
IC50 [1]: > 100 µg/mL

O.Oc1cc(O)c2c(c1)O[C@H](c1ccc(O)c(O)c1)[C@@H](O)C2 [Catechin hydrate]
IC50 A. Neff [1]: >100 µg/mL

O=C(/C=C/c1ccc(O)c(O)c1)O[C@@H]1C[C@](O)(C(=O)O)C[C@@H](O)[C@H]1O [Chlorogenic acid]
IC50 [1]: > 100 µg/mL

O=c1oc2c(O)c(O)cc3c(=O)oc4c(O)c(O)cc1c4c23 [Ellagic acid]
IC50 [1]: 67.4 ± 3.59 µg/mL (≈ 223 µM)

COc1cc(/C=C/C(=O)O)ccc1O [Ferulic acid]
IC50 A. Neff [1]: 62.03 ± 1.78 µg/mL (≈ 319 µM)

O=C(O)c1cc(O)c(O)c(O)c1 [Gallic acid]
IC50 [1]: > 100 µg/mL

OCCc1ccc(O)c(O)c1 [Hydroxytyrosol]
IC50 [1]: > 100 µg/mL

O=c1cc(-c2ccc(O)c(O)c2)oc2cc(O[C@@H]3O[C@H](CO)[C@@H](O)[C@H](O)[C@H]3O)cc(O)c12 [Luteolin 7-o-glucoside]
IC50 A. Neff [1]: 61.98 ± 3.93 µg/mL (≈ 138 µM)

O=c1cc(-c2ccc(O)c(O)c2)oc2cc(O)cc(O)c12 [Luteolin]
IC50 [1]: 28 ± 1.73 µg/mL (≈ 97.7 µM) | IC50 (CLC-16, genotype T3): 83.1 ± 0.89 µg/mL (≈ 290 µM) | IC50 (CLC-51, genotype T1): 26.6 ± 1.75 µg/mL (≈ 93 µM)

CC1(C)CC[C@]2(C(=O)O)CC[C@]3(C)C(=CC[C@@H]4[C@@]5(C)C[C@@H](O)[C@H](O)C(C)(C)[C@@H]5CC[C@]43C)[C@@H]2C1 [Maslinic acid]
IC50 ([2]; ATCC30010, read-out: IC50 A. Neff): 30.9 ± 1.33 µg/mL (≈ 65.3 µM)

CC1(C)CC[C@]2(C(=O)O)CC[C@]3(C)C(=CC[C@@H]4[C@@]5(C)CC[C@H](O)C(C)(C)[C@@H]5CC[C@]43C)[C@@H]2C1 [Oleanolic acid]
IC50 [1]: 43.7 ± 3.34 µg/mL (≈ 95.6 µM)

C/C=C1/[C@H](O[C@@H]2O[C@H](CO)[C@@H](O)[C@H](O)[C@H]2O)OC=C(C(=O)OC)[C@H]1CC(=O)OCCc1ccc(O)c(O)c1 [Oleuropein]
IC50 [1]: 57.5 ± 4.32 µg/mL (≈ 106 µM)

O=C(O)c1ccc(O)c(O)c1 [Protochatechuic acid]
IC50 A. Neff [1]: 36.05 ± 1.31 µg/mL (≈ 234 µM)

O=c1c(O)c(-c2ccc(O)c(O)c2)oc2cc(O)cc(O)c12 [Quercetin hydrate]
IC50 [1]: > 100 µg/mL

C[C@@H]1O[C@@H](OC[C@H]2O[C@@H](Oc3c(-c4ccc(O)c(O)c4)oc4cc(O)cc(O)c4c3=O)[C@H](O)[C@@H](O)[C@@H]2O)[C@H](O)[C@H](O)[C@H]1O [Rutin]
IC50 [1]: 61.4 ± 5.44 µg/mL (≈ 101 µM)

COc1cc(C(=O)O)cc(OC)c1O [Syringic acid]
Plasma membrane permeabilization (A. Neff membrane): induced the higher permeabilization; also recorded: caused plasma membrane permeability | IC50 [1]: 22.9 ± 2.14 µg/mL (≈ 116 µM) | IC50 (CLC-16, genotype T3): 51.5 ± 2.41 µg/mL (≈ 260 µM) | Cytotoxicity (in words) (macrophages J774.A1; J774A.1 macrophages, Fig 2): lowest toxic levels | Cytotoxicity level at the IC50 against Acanthamoeba (macrophages J774.A1): low cytotoxicity (Values between 10 and 25% correspond to low cytotoxicity) | Cytotoxicity level at the IC90 against Acanthamoeba (macrophages J774.A1): low cytotoxicity (Values between 10 and 25% correspond to low cytotoxicity) | IC50 (CLC-51, genotype T1): 63.07 ± 0.56 µg/mL (≈ 318 µM) | Decrease of the membrane potential (ΔΨm) (A. Neff): 68% | IC90 [2]: 119 µg/mL (≈ 602 µM)

OCCc1ccc(O)cc1 [Tyrosol]
IC50 [1]: 63.77 ± 0.34 µg/mL (≈ 462 µM)

C[C@H]1[C@H](C)CC[C@]2(C(=O)O)CC[C@]3(C)C(=CC[C@@H]4[C@@]5(C)CC[C@H](O)C(C)(C)[C@@H]5CC[C@]43C)[C@H]12 [Ursolic acid]
IC50 A. Neff [1]: 23.94 ± 1.14 µg/mL (≈ 52.4 µM) | IC50 (CLC-16, genotype T3): 55 ± 1.21 µg/mL (≈ 120 µM) | Percentage of apoptotic cells [3]: 26% | IC50 (CLC-51, genotype T1): 28 ± 2.26 µg/mL (≈ 61.2 µM) | Decrease of the membrane potential (ΔΨm) (A. Neff): 80% | IC90 [2]: 119 µg/mL (≈ 261 µM)

COc1cc(C(=O)O)ccc1O [Vanillic acid]
Plasma membrane permeabilization (A. Neff membrane): induced the higher permeabilization; also recorded: caused plasma membrane permeability | IC50 [1]: 34.7 ± 1.32 µg/mL (≈ 206 µM) | IC50 (CLC-16, genotype T3): 65.4 ± 0.89 µg/mL (≈ 389 µM) | Cytotoxicity level at the IC50 against Acanthamoeba (macrophages J774.A1): low cytotoxicity (Values between 10 and 25% correspond to low cytotoxicity) | IC50 (CLC-51, genotype T1): 61.7 ± 4.43 µg/mL (≈ 367 µM) | Decrease of the membrane potential (ΔΨm) (A. Neff): 68% | IC90 [2]: 133 µg/mL (≈ 789 µM)

COc1cc(C=O)ccc1O [Vanillin]
Plasma membrane permeabilization (A. Neff membrane): caused plasma membrane permeability | IC50 [1]: 25.6 ± 2.1 µg/mL (≈ 168 µM) | IC50 (CLC-16, genotype T3): 58.1 ± 3.77 µg/mL (≈ 382 µM) | Cytotoxicity level at the IC50 against Acanthamoeba (macrophages J774.A1): low cytotoxicity (Values between 10 and 25% correspond to low cytotoxicity) | IC50 (CLC-51, genotype T1): 37.2 ± 2.85 µg/mL (≈ 244 µM) | Decrease of the membrane potential (ΔΨm) (A. Neff): 36% | IC90 [2]: 123 µg/mL (≈ 810 µM)

C[C@@H]1O[C@@H](O[C@@H]2[C@@H](O)[C@H](OCCc3ccc(O)c(O)c3)O[C@H](CO)[C@H]2OC(=O)/C=C/c2ccc(O)c(O)c2)[C@H](O)[C@H](O)[C@H]1O [Verbascoside]
IC50 [1]: > 100 µg/mL

O=C(O)/C=C/c1cccc(O)c1 [m-coumaric acid]
IC50 A. Neff [1]: 65.75 ± 3.97 µg/mL (≈ 401 µM)

O=C(O)/C=C/c1ccc(O)cc1 [p-coumaric acid]
IC50 [1]: 72.19 ± 0.19 µg/mL (≈ 440 µM)
